Measurements: PubChem BioAssay AID2305 (GlaxoSmithKline (GSK), 2010)

System: P. falciparum 3D7 growth, pLDH absorbance
Assay: blood-stage malaria parasite growth potency – strain 3D7, dose response (AID 2305)

| SMILES | IC50 [nM] |
| --- | --- |
| Cc1nc(-c2cccc3c(NC(=O)Nc4ccc5nccc(N6CCN(C)CC6)c5c4)cccc23)no1 | 230 |
| O=C(/C=C/c1ccc(Cl)c(Cl)c1)NCCCCCN1CCCN(C(=O)Nc2cccc(C(F)(F)F)c2)CC1 | 870 |
| CCOCc1cnc(C)nc1NCC(=O)c1c(C)[nH]c2cc(C)ccc12 | 1210 |
| COc1ccc(C2C(C(=O)Nc3cc(OC)c(OC)c(OC)c3)c3cc(OC)c(OC)cc3C(=O)N2C)cc1 (configuration not stated) | 800 |
| Cc1cc(N[C@@H](CC(C)C)C(=O)Nc2ccccc2)nc(NCc2ccccc2C)n1 | 780 |
| CC(C)c1ccc(NC(=O)c2ccc(C(=O)NC3CCN(Cc4ccsc4)C3)cc2)cc1 (configuration not stated) | 1030 |
| Cc1cccc(/C=C/C(=O)NC2CCC(N3CCC(c4ccccc4C)CC3)CC2)c1 (configuration not stated) | 1110 |
| CN1CCC(C(=O)Nc2cccc(-c3ccc(-c4nc5ccc(F)cc5[nH]4)cc3)c2)CC1 | 710 |
| CCCOc1ccc(N2C(N)=NC(N)=NC2(C)C)cc1 | 490 |
| CCOc1ccc(-c2nonc2NC(=O)c2ccccc2F)cc1OCC | 840 |
| c1cncc(-c2cccc(CNc3nccc(Nc4ccc(OCCN5CCOCC5)cc4)n3)c2)c1 | 1060 |
| COC(=O)c1ccc2nc(-c3ccc(/C=C/C(=O)NC4CCN(Cc5ccccc5)CC4)cc3)[nH]c2c1 | 710 |
| COc1nc2c(CCN3CCC(NCc4ccc5c(n4)NC(=O)CO5)CC3)c(Cl)cnc2cc1F | 420 |
| NC(=O)c1cccc(C(=O)Nc2cccc(-c3cccc(-c4nc5ccc(F)cc5[nH]4)c3)c2)c1 | 250 |
| CC(C)CCNCc1ccc(OCc2cccc(COc3ccc(CNCCC(C)C)cc3I)c2)c(I)c1 | 450 |
| COc1c(C2CCN(CCCCNC(=O)c3ccc(-c4ccc(Cl)cc4)cn3)CC2)ccc2c1CCCC2 | 910 |
| O=C(CCC1CCCC1)N(Cc1ccc(-c2ccc(CNCCc3ccccc3)cc2)cc1)C1CCCNC1 (configuration not stated) | 1220 |
| C#CCN1CCC2=C(C1)c1c(O)cc(C(C)C(C)CCc3ccc(F)cc3)cc1OC2(C)C (configuration not stated) | 180 |
| CCN1CCC(N(Cc2ccc(-c3ccc(C(F)(F)F)cc3)cc2)C(=O)Cn2c(CCc3cccc(F)c3F)cc(=O)c3ccccc32)CC1 | 830 |
| CC(C)(C)OC(=O)n1cc(C2CCN(CCCC34CCCc5cccc(c53)NC4=O)CC2)c2ccncc21 (configuration not stated) | 880 |
| CNCCNCc1cccc(-c2ccc(-c3nc4ccc(C(F)(F)F)cc4[nH]3)s2)c1 | 820 |
| c1cc(CN2CCCCC2)cc(-c2csc(-c3nc4ccccc4[nH]3)c2)c1 | 850 |
| CCOc1c(CNCCCNc2cc(=O)c3ccccc3[nH]2)cc(Br)cc1OC | 1160 |
| COc1ccc(-c2ccc(NC(=O)c3cccc(Cl)c3)cc2)cc1CN1CCC(O)CC1 | 710 |
| COc1ccc(OC)c([C@H](O)[C@@H](C)NCc2cc(Cl)ccc2O)c1 | 380 |

| SMILES | IC50 [nM] |
| --- | --- |
| Cc1ccc2nc(-c3ccc(C=CC(=O)NC4CCN(Cc5ccccc5)CC4)cc3)[nH]c2c1 | 680 |
| CC(CN(C)C)C(=O)Nc1ccc(-c2ccc(-c3nc4ccccc4[nH]3)s2)cc1 (configuration not stated) | 720 |
| O=C(NC(c1ccccc1)c1ccccc1)C(c1cc2ccccc2o1)N1CCN(C(c2ccccc2)c2ccccc2)CC1 (configuration not stated) | 680 |
| COc1ccccc1C1CCN(C2CCC(NC(=O)/C=C/c3cccc(C(F)(F)F)c3)CC2)CC1 (configuration not stated) | 810 |
| O=C(Nc1ccc2ccccc2c1)N(CCCn1ccnc1)Cc1csc(-c2ccc(CNCc3ccccc3)cc2)n1 | 740 |
| COCCNCc1cccc(-c2ccc3c(Nc4cc(O)c(Cl)cc4F)ccnc3c2)c1 | 110 |
| O=C(Nc1cccc(CN2CCCN(CC3CCCCC3)CC2)c1)c1cc2ccccc2s1 | 810 |
| CC(C)C(C(=O)Nc1ccc2c(c1)OCO2)c1ccc(Cl)cc1 (configuration not stated) | 720 |
| COc1ccc2nccc([C@@H](O)CN3CCC(NCc4ccc5c(c4)nnn5C(C)C)CC3)c2c1 | 640 |
| COc1ccccc1CCC(C)(C)NC(=O)CC(CCc1ccccc1)Nc1ccc(C#N)c2ccccc12 (configuration not stated) | 920 |
| COc1ccc(CN(C)CCCOc2ccc(NC(=O)C=Cc3ccc(C(C)(C)C)cc3)cc2)cc1OC | 860 |
| CNCCNCc1cccc(-c2cccc(-c3nc4c(C)cccc4[nH]3)c2)c1 | 770 |
| Cn1nccc1C(=O)NCCNCc1cccc(-c2cccc(-c3nc4ccc(C(F)(F)F)cc4[nH]3)c2)c1 | 170 |
| O=C1CC(C(=O)Nc2cccc(-c3cccc(-c4nc5ccccc5[nH]4)c3)c2)c2ccccc2N1 (configuration not stated) | 980 |
| O=C(Nc1ccccc1)c1ccc(-c2cc3ccncc3cc2OC2CCNCC2)s1 | 650 |
| Cc1ccccc1CNCC(O)c1cccc(C(F)(F)F)c1 (configuration not stated) | 880 |
| Nc1ncc(-c2ccccc2)cc1/C=C/c1cccnc1 | 1120 |
| CN(c1ccc(C(=O)N[C@@H](CCC(=O)O)C(=O)O)cc1)S(=O)(=O)c1ccc2nc(N)[nH]c(=O)c2c1 | 150 |
| CN(C)S(=O)(=O)c1ccc(C(=O)N(c2nc(-c3ccccc3)cs2)C2CCCCC2)cc1 | 760 |
| O=c1cc(NCCCNCc2ccc(C(F)(F)F)c(F)c2)[nH]c2ccccc12 | 1190 |
| C[C@H](NC(=O)c1cc(-c2ccc(C(C)(C)C)cc2)no1)C(=O)O (tested in a mixture with another compound) | 140 |
| O=C(/C=C/c1ccccc1Cl)Nc1ccc(Br)c(OCCN2CCC(O)(c3ccccc3)CC2)c1 | 480 |
| COC(=O)c1ccc(NC(=O)Nc2ccc(Cn3ncc(N4CCCNCC4)c(Cl)c3=O)cc2)cc1 | 600 |
| CCOc1cc(Br)c(C(C)NC(=O)c2ccccc2)cc1OCC (configuration not stated) | 860 |
| COc1cc(-c2nc(C(C)(C)CN)[nH]c2-c2ccncc2)ccc1Br | 770 |

| SMILES | IC50 [nM] |
| --- | --- |
| Cc1cccc2[nH]c(-c3ccc(-c4ccc(CN5CCC(C(N)=O)CC5)cc4)s3)nc12 | 910 |
| CCC(C)CN1CCCN(c2ccc(NC(=O)c3cccs3)cc2)CC1 (configuration not stated) | 800 |
| CCOc1cc(C)ccc1C1CCN(CCCCNC(=O)c2coc(-c3ccc(Cl)cc3)c2)CC1 | 910 |
| NC(=O)c1ccc(-c2ccc3ccnc(N)c3c2)cc1 | 420 |
| Cc1cc(-c2cc(-c3ccc(OCCN(C)C)cc3)[nH]c2-c2ccc3c(c2)CCC3=NO)ccn1 | 870 |
| Cc1cccc2[nH]c(-c3ccc(-c4ccc(CNCCNC(=O)c5ccnn5C)cc4)s3)nc12 | 310 |
| Cc1cc(C(F)(F)F)nn1-c1ccc(NC(=O)c2ccco2)cc1 | 730 |
| CC(CN(C)C)C(=O)Nc1cccc(-c2ccc(-c3nc4ccccc4[nH]3)s2)c1 (configuration not stated) | 740 |
| CN(Cc1cccc(O)c1)C1CCCN(c2cc(NC(=O)c3ccc(F)cc3)ccn2)C1 (configuration not stated) | 1070 |
| CS(=O)(=O)NCCCNCc1cccc(-c2ccc(-c3nc4ccc(C(F)(F)F)cc4[nH]3)s2)c1 | 880 |
| O=C(Nc1ccc2c(c1)CCN2C1CCN(Cc2ccc(C(F)(F)F)cc2F)C1)c1ccco1 (configuration not stated) | 510 |
| COc1ccc(Nc2nc(N3CCCC3)c3ccccc3n2)cc1 | 750 |
| O=S(=O)(c1cc(Cl)sc1Cl)N(CCC(O)(C(F)(F)F)C(F)(F)F)Cc1cccc(O)c1 | 740 |
| C=C(C)CSc1nc2c(c(=O)n1Cc1ccco1)C1(CCCCC1)Cc1ccccc1-2 | 1000 |
| c1ccc(CCNCc2ccc(-c3ccc(CNC4CCN(Cc5ccccc5)CC4)cc3)nc2)cc1 | 450 |
| CCCCCN1CCN(Cc2cccc(NC(=O)c3ccc(Cl)c(Cl)c3)c2)CC1 | 860 |
| CS(=O)(=O)CCCNCc1ccc(-c2cc3c(Nc4ccc(OCc5ccccc5)cc4)ncnc3cn2)o1 | 650 |
| O=C(NCCCCN1CCC(c2ccc3c(c2OCC2COCO2)CCCC3)CC1)c1ccc(-c2ccc(C(F)(F)F)cc2)cc1 (configuration not stated) | 870 |
| O=C(NC=Nc1cc([N+](=O)[O-])c(-c2ccncc2)n1-c1ccccc1)c1cccc(O)c1 | 330 |
| CC(C)(C)c1ccc(Cc2cccc3nc(N)nc(N)c23)cc1 | 830 |
| COc1ccc(Nc2nc(C)cc(NC3CCCC3)n2)cc1 | 870 |
| COc1ccccc1/C=C/C(=O)N(C)C1CCN(CCCCCNC(=O)/C=C/c2ccc(Cl)c(Cl)c2)CC1 | 440 |
| CN1CCN(c2ccc(-c3cc(-c4ccncc4)c(-c4ccc(Cl)c(O)c4)o3)cc2)CC1 | 740 |
| O=C(Nc1n[nH]c2nc(-c3ccco3)c(Br)cc12)c1ccc(CN2CCCC2)cc1 | 790 |
| NC1CCN(Cc2ccc(-c3ccc(-c4nc5ccccc5[nH]4)s3)cc2)C1 (configuration not stated) | 740 |

| SMILES | IC50 [nM] |
| --- | --- |
| Cc1noc(C)c1-c1cccc(CNCc2ccc(-c3cccc(-c4nc5ccc(F)cc5[nH]4)c3)cc2)c1 | 550 |
| COc1ccc(-c2cccc(NC(=O)c3cccc(Cl)c3)c2)cc1CN1CCNCC1 | 800 |
| CC(C)(C)c1ccc(C(=O)Nc2ccc3nc4c(c(N)c3c2)CCCC4)cc1 | 170 |
| CN1CCN(c2ccc(Nc3nc(N)c4ccn(C5CCC5)c4n3)cc2)CC1 | 1220 |
| O=C(Nc1cccc(Cl)c1N1CCOCC1)C(Cl)(Cl)Cl | 980 |
| COCCNCc1cccc(-c2ccc3c(Nc4ccc(Oc5cccnc5)cc4)ccnc3c2)c1 | 180 |
| COc1ccc(NC(=O)[C@H](CC(C)C)Nc2cc(C)nc(NCc3ccccc3C)n2)cc1 | 890 |
| Cc1nc2ccc(S(=O)(=O)Nc3ccc(C(=O)N[C@@H](CCC(=O)O)C(=O)O)cc3)cc2c(=O)[nH]1 | 1010 |
| CCc1c(CCNCCCCCCNC(C)Cc2ccc3c(c2CC)OCO3)ccc(OC)c1OC (configuration not stated) | 870 |
| COc1ccc(-c2cccc(NC(=O)c3cccc(Cl)c3)c2)cc1CN1CCC(O)CC1 | 790 |
| CCC[C@@H]([C@@H](CC1CCCCC1)C(=O)N[C@@H](CCOC(=O)NCC)C(=O)Nc1nccs1)N(O)C=O | 80 |
| Cc1cnc(-c2ccc(NC(=O)N3CCc4cc5nccc(N6CCN7CCC[C@H]7C6)c5cc43)c3ccccc23)o1 | 860 |
| CC(C)(C)C/C=C\c1ccc(C(=O)NCC2CC2)cc1 | 850 |
| COc1ccc(CNCc2ccc(-c3ccc(-c4nc5ccc(F)cc5[nH]4)cc3)cc2)cc1 | 250 |
| CN(C)c1nc2cc(-n3cnc4cc(-c5ccc(Cl)cc5)sc4c3=O)ccc2n1CCCN1CCCC1 | 850 |
| CC(C)(C)c1ccc(S(=O)(=O)Nc2ccccc2N2CCOCC2)cc1 | 680 |
| O=C(Nc1cccc(CCNCc2ccccc2)c1)Nc1cccc2ccccc12 | 730 |
| Cc1nc(-c2cccc(Nc3nccc(NCC(O)c4ccccc4C(F)(F)F)n3)c2)cs1 (configuration not stated) | 830 |
| CC(C#N)Cc1ccc(-c2cnc(N)c3cc(-c4ccnc(N)n4)ccc23)cc1 (configuration not stated) | 990 |
| CC1CCC(NCc2ccc3c(CNC4CCC(C)CC4)c(O)ccc3c2O)CC1 (configuration not stated) | 120 |
| CC1CN(Cc2ccccc2)CCN1c1ccc(NC(=O)c2ccc(F)cc2)cc1 (configuration not stated) | 1010 |
| O=C(COc1ccc(Cl)cc1)N1CCC(CN2CCC(c3c[nH]c4ccccc34)CC2)CC1 | 1100 |
